The test concerns the target bacterial collagenase. Description: Inhibition of bacterial collagenase; Ki from dissociation and association rate constants, substrate Fa--Leu--Gly--Pro--Ala. The class given is biochemical, Empedobacterium collagenolyticum. The settings on record: ratio Koff/Kon, slow binding inhibitors, pH7 Tricine buffer. The method, then:
The activities of the different compounds A, B, C and D were determined on the one hand by measuring the association rate constant of the inhibitors to collagenase by the method of Morrison, J. & Walsh, C. T., 1987, Adv., Enzymol. Relat. Aeras Mol. Biol. applied in the case where the inhibitors are of the slow binding type and on the other hand by measuring the dissociation rate constants of the inhibitors of the enzyme--inhibitor complex. In this case, after allowing the collagenase to preincubate in the presence of an inhibitor excess, the thus formed enzyme--inhibitor complex is purified by gel filtration. The solution containing the purified complex is then diluted by a factor of 10,000 in a reference buffer and then, as a function of time, measurement takes place of the return of the activity of the collagenase, which represents the dissociation of the inhibitor of the enzyme--inhibitor complex.
The inhibition constants given in the table correspond to the ratio of the dissociation rate constants Koff and the association rate constants Kon measured in this way. In all the activity measurement experiments we used as the synthetic substrate Fa--Leu--Gly--Pro--Ala in a pH7 Tricine buffer. The source of the bacterial collagenase used was the strain Empedobacterium collagenolyticum.

For the substance “Z--Pro--Phe*--PO(OH)--CH2 --CH2 --CO--Pro--Nle* 2Na^+ [Compound B]”, the inhibition constant Ki turned out to be 80 nM. With Z,D,L-Phe*PCH2DL-Ala°ProNle°, 2Na^+ [F], the inhibition constant (Ki) was 2350 nM.

Regarding “Z--D,LPhe*--PO2 CH2 --CH2 --CO--Pro--Nle*,2Na^+ [Compound A]”, the inhibition constant (Ki) stood at 12 nM.

On to “Z--Gly--Pro--Phe*--PO(OH)--CH2 --CH2 --CO--Pro--Nle*2Na^+”, for which the Ki worked out at 0.4 nM.

As usually defined, the Ki is a dissociation constant, usually derived from enzyme kinetics or from competition with a known ligand.
